Test results as given in patent publication US4542140A, “Pyridinyl substituted ketenemercaptal derivatives” (American Home Products Corporation, priority 1983, dated 1985).

How the values were obtained:
[1] = tested on: spontaneous gastric acid secretion; assay: inhibition of spontaneous gastric acid secretion in cannulated rats; type: in vivo, Male albino Sprague Dawley rats
Protocol: Male albino Sprague Dawley rats (200-300 g), purchased from Canadian Breeding Laboratories, were employed. Two gastric cannulas were implanted surgically in each rat as described by L. E. Borella and F. Herr, Gastroenterology, 61, 345 (1971). The rats were used two to three weeks after the operation at a time when their food intake and weight gain were similar to the food intake and weight gain of unoperated litter mates. Before testing, the rats were deprived of food for 18 hours, but they had available a solution of 0.2% sodium chloride in 5% glucose for drinking ad libitum. Prior to each experiment, the plugs of the stomach cannulas of each rat were removed and the debris present in the stomach was flushed out with tepid saline passed through the cannulas. Thereafter, the lumen of the stomach was continuously perfused with saline introduced into the stomach through the forestomach cannula at a rate of 0.8-1.2 ml/min. The stomach perfusate flowing out of the antrum cannula was collected in 60 minutes intervals and the total acid in each collection was titrated with 0.05N sodium hydroxide employing phenol red as an indicator. After a period of acclimatization of about 60 to 90 minutes, the acid output values were recorded. On the basis of the hourly acid output, the rats were divided into equal groups so that the average acid output of all groups was similar. Saline (vehicle) or saline suspensions or solutions of the test compounds were administered intragastrically (i.g.) through the forestomach cannula, after having closed the antral cannula. During the one hour absorption period, the stomachs of the rats were not perfused. After the absorption period, perfusion of the stomachs was resumed, and the perfusates were collected hourly for three hours. The average post-treatment hourly acid outputs of the test compound groups were compared to that of the saline group and the percent inhibition of acid output was calculated. Multiple statistical comparisons between groups was done using Dunnet's t test, C. W. Dunnet, Journal of American Statistical Association, 50, 1096 (1955).

[2] = tested on: gastric lesions induced by absolute alcohol; assay: gastric lesions induced in rats by absolute alcohol; type: in vivo, male albino rats (Sprague-Dawley); settings: i.g., 30 minutes before absolute ethanol
Protocol: More explicitly exemplified, the beneficial effects were evaluated as follows: food was withheld from male albino rats (180-220 g, Sprague-Dawley, Canadian Breeding Laboratories) for 18 to 19 hours, but water was freely available. Test compounds were administered intragastrically (i.g.) by stomach gavage, 30 minutes before absolute ethanol. The absolute ethanol (one milliliter) also was administered by gavage. One hour after the alcohol treatment, the rats were killed and their stomachs removed for observation. Clotted blood was removed from the surface of the mucosa, and the macroscopic lesions counted. The average scores of the treatment groups were compared individually to that of the control group and percent inhibitions of lesion formation calculated. The data was analyzed statistically according to Dunnett's t test for multiple comparisons between groups.
The results obtained when 2-cyano-3-(methylthio)-3-[[3-pyridinyl)-methyl]thio]-2-propenoic acid methyl ester, described in example 1, was tested according to the previous method is as follows.

[3] = 50 mg/kg/i.g., tested as hydrochloric acid addition salt

In the case of `COC(=O)C(C#N)=C(SCc1cccnc1)SCc1cccnc1` [1 (R^2 = 3-pyridinylmethyl thio), 2-cyano-3,3-bis[[(3-pyridinyl)methyl]thio]-2-propenoic acid methyl ester], the “Percent Inhibition of Acid Output” value ([1]; 25 mg/kg/i.g.) is reported as 38%.
For `COC(=O)C(C#N)=C(SC)SCc1cccnc1` [Example 1, 2-Cyano-3-(methylthio)-3-[[(3-pyridinyl)methyl]thio]-2-propenoic Acid Methyl Ester], the “Gastric Ulcers Formed, % Inhibition” value ([2]; 5 mg/kg) was 61%, the “Gastric Ulcers Formed, Score (mean ± S.E.)” value ([2]; 5 mg/kg) was 6.7 ± 2.2 and the “Gastric Ulcers Formed, % Inhibition” value ([2]; 10 mg/kg) was 100%. The “Gastric Ulcers Formed, Score (mean ± S.E.)” value ([2]; 10 mg/kg) was 0 and the “Percent Inhibition of Acid Output” value ([1]; 25 mg/kg/i.g.) was 85%.
For `COC(=O)C(C#N)=C(SC)SCc1ccc[n+]([O-])c1` [Example 2, 2-Cyano-3-(methylthio)-3-[[(3-pyridinyl)methyl]thio]-2-propenoic Acid Methyl Ester N-oxide], the “Percent Inhibition of Acid Output” value ([1]; 25 mg/kg/i.g.) was 60%.
With `COC(=O)C(C#N)=C(SC)Sc1ccnnc1C` [Example 3, 2-cyano-3-[(3-methyl-4-pyridazinyl)thio]-3-(methylthio)-2-propenoic acid methyl ester] the “Percent Inhibition of Acid Output” value [1, 3] was 90%.
For `COC(=O)C(C#N)=C(SC)SCc1cnccn1` [Example 4, 2-cyano-3-(methylthio)-3-[[(3-pyrazinyl)methyl]-thio]-2-propenoic acid methyl ester], the “Percent Inhibition of Acid Output” value [1, 3] was 88%.
In the case of `CSC(SCc1cccnc1)=C(C#N)C(N)=O` [Example 12, 2-Cyano-3-(methylthio)-3-[[(3-pyridinyl)methyl]thio]-2-propenamide], the “Percent Inhibition of Acid Output” value ([1]; 25 mg/kg/i.g.) is reported as 27%.
In the case of `CSC(SCc1ccncc1)=C(C#N)C(N)=O` [Example 13, 2-Cyano-3-(methylthio)-3-[[(4-pyridinyl)methyl]thio]-2-propenamide], the “Percent Inhibition of Acid Output” value ([1]; 50 mg/kg/i.g.) is reported as 59%.
